Measured values taken from PubChem BioAssay (NCI).
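Step 1: Grow cells in 96-well plates. Step 2: Expose to compound for 48 hours at 5 concentrations. Step 3: Interpolate endpoints linearly; if unreached, use highest concentration. GI50 is the concentration that inhibits growth by half. Definition used: TGI = concentration required for complete inhibition of growth.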

Experiments:
Assay in all cases: NCI anticancer screen, dose series, 48 h
SNB-19 CNS = tested on: SNB-19 CNS
UACC-62 melanoma = tested on: UACC-62 melanoma
SF-539 CNS = tested on: SF-539 CNS
HCT-116 colon = tested on: HCT-116 colon
K-562 leukemia = tested on: K-562 leukemia
SK-MEL-28 melanoma = tested on: SK-MEL-28 melanoma
SNB-75 CNS = tested on: SNB-75 CNS
OVCAR-3 ovarian = tested on: OVCAR-3 ovarian
UACC-257 melanoma = tested on: UACC-257 melanoma
SR leukemia = tested on: SR leukemia

Structure (SMILES)	TGI (SNB-19 CNS)	TGI (UACC-62 melanoma)	TGI (SF-539 CNS)	TGI (HCT-116 colon)	TGI (K-562 leukemia)	TGI (SK-MEL-28 melanoma)	TGI (SNB-75 CNS)	TGI (OVCAR-3 ovarian)	TGI (UACC-257 melanoma)	TGI (SR leukemia)	GI50 (SNB-19 CNS)	GI50 (UACC-62 melanoma)	GI50 (SF-539 CNS)	GI50 (HCT-116 colon)	GI50 (K-562 leukemia)	GI50 (SNB-75 CNS)	GI50 (OVCAR-3 ovarian)	GI50 (SK-MEL-28 melanoma)	GI50 (UACC-257 melanoma)	GI50 (SR leukemia)
Cc1ccc2ccc3ccc(C)nc3c2n1	> 100 µM	> 100 µM	> 100 µM	> 44.7 µM	> 100 µM	> 100 µM	> 100 µM	> 100 µM	> 100 µM	> 100 µM										
O=C1C(=c2cc3c(c4ccccc24)=NC24CCCCC2C(c2ccccc2)C=C(c2ccccc2)N34)C(=O)c2ccccc21 (stereo unspecified)	> 100 µM		> 100 µM	> 100 µM	> 100 µM	> 100 µM	> 100 µM	> 100 µM	> 100 µM	79.7 µM										
O=C(Nc1sccc1S(=O)(=O)c1ccc(Cl)cc1)c1ccccc1	> 100 µM	> 100 µM	> 100 µM	> 100 µM	> 100 µM	> 100 µM	> 100 µM	> 100 µM	> 100 µM	> 100 µM										
C/C=C1/CN2CCC34c5ccccc5N(C)C23C2CC1C4(C(=O)OC)C(O)O2 (stereo unspecified)	> 100 µM	> 100 µM	> 100 µM	> 100 µM	> 100 µM	> 100 µM	> 100 µM	> 100 µM	> 100 µM											
Cc1c2cc[n+](C)cc2c(C)c2c1[nH]c1ccc(Cl)cc12	1.21 µM	45.1 µM	2.32 µM	32.2 µM	45.5 µM	16.5 µM	1.05 µM	22.6 µM	62.3 µM	> 78.1 µM										
CSc1ccc(-c2cc(-c3nc4ccccc4[nH]3)nc(N)c2C#N)cc1	> 100 µM	26 µM	86 µM	42.7 µM	58.6 µM	53.2 µM	57.8 µM	43.1 µM	39.4 µM	65.8 µM										
C=Cc1cc(OC)c2c(c1)c(=O)oc1c2cc(OC)c2c(O)ccc(C3OC(C)C(O)C(C)(O)C3O)c21 (stereo unspecified)	0.733 µM				0.947 µM					0.000187 µM	0.00151 µM	0.0012 µM	0.000153 µM	0.000308 µM	0.00037 µM	0.00041 µM	0.00181 µM			
C[C@@H](CO)C1=CC(C#C[Si](C)(C)C)N(C(=O)Oc2ccccc2)c2ccccc21 (stereo partly specified)	82 µM	21.9 µM	41.6 µM	29 µM	95.5 µM	36.3 µM	36.1 µM	26.9 µM	38.3 µM	> 100 µM										
Cc1ccc([N+](=O)[O-])cc1S(=O)(=O)Nc1ccc(C2=NN(C(=O)c3ccccc3)C(c3cccs3)C2)cc1 (stereo unspecified)	> 100 µM		63.9 µM	> 100 µM	> 100 µM	> 100 µM	67 µM	45.5 µM	72.9 µM	> 100 µM										
CNS(=O)(=O)c1ccc2[nH]c(O)c(C3=Nc4ccccc4C3=O)c2c1	> 100 µM	> 100 µM		> 100 µM	> 100 µM	> 100 µM	> 100 µM	> 100 µM	> 100 µM											
N#CCCOCN(CO)c1nc(N(CO)COCCC#N)nc(N(CO)COCCC#N)n1	> 100 µM		8.63 µM	63.8 µM	61.2 µM	38.8 µM		59.3 µM	63.9 µM	41.7 µM										
COc1cc(NC(=O)CSc2nc3ccccc3c(=O)n2CCc2ccccc2)cc(OC)c1OC	17.5 µM						11 µM				3.49 µM					2.23 µM				
O=C(NCCNc1nccc(-c2c(-c3cccc(O)c3)nc3sccn23)n1)Nc1cccc(C(F)(F)F)c1	36.2 µM	6.51 µM	36.9 µM	11.5 µM	57.1 µM		12.7 µM	22.7 µM	6.94 µM	40 µM	5.09 µM	1.94 µM	13.1 µM	3.56 µM	3.42 µM	2.5 µM	5.52 µM	2.68 µM	2.51 µM	6.08 µM
CC(=O)OC[C@@]1(C)[C@@H]2[C@@H]3[C@@]4(CO[C@]3(C)C(=O)[C@@]3(O)C[C@H](C)[C@H](OC(C)=O)[C@@H]3[C@H]4OC(C)=O)[C@H](OC(=O)c3ccccc3)C[C@@H]21	> 100 µM	> 100 µM	> 100 µM	> 100 µM	> 100 µM	> 100 µM	> 100 µM	> 100 µM	> 100 µM	> 100 µM										
